Values quoted from earlier work in US20070032555A1, “Novel aryloxyphenyl-propanamines” (priority 2005, published 2007).

Tests used:
[1] = tested on: 6-hydroxydopamine-lesion rats
[2] = humans, FDA Talk Paper T04-60

CNCC[C@@H](Oc1ccccc1C)c1ccccc1 [Compound 1, (R)-N-methyl-3-phenyl-3-(o-tolyloxy)propan-1-amine]
half life (CYP2D6 poor metabolisers (PM)): 62 h
mean half life (healthy volunteers, CYP2D6 extensive metabolizers (EM)): 18 h
increase of total exposure, measured as AUC0-τ (poor metabolisers (PM) versus extensive metabolizers (EM)): 8-10 fold
motor hyperactivity [1]: reductions in their motor hyperactivity
hepatotoxicity [2]: rare but very severe hepatotoxicity
